Source: patent US5173493A, “Pyridoindole derivatives and processes for preparation thereof” (Fujisawa Pharmaceutical Company, Ltd., priority 1988, dated 1992)
Like-named read-outs stand apart in the source and are kept apart here.

Tests used:
Benzold-Jarisch reflex = assay: Inhibition of Benzold-Jarisch reflex; type: in vivo, Male Sprague-Dawley rats; settings: Rattus norvegicus, iv, 5 min
Protocol: (A) Inhibition of Benzold-Jarisch reflex
Male Sprague-Dawley rats weighing 260-350 g were anesthetized intraperitoneally with 1.25 g/kg urethane.
Blood pressure and heart rate were monitored continuously from the left common carotid artery with a pressure transducer. A right femoral vein was connulated for the intravenous injection (iv) of drugs. The trachea was also connulated to ease the respiration.
Rats were given a rapid bolus injection of 2-methyl-5-hydroxytryptamine (32 μg/kg, iv) to establish the control bradycardic response. Once the heart rate returned to base line, the rats were given the test compound (iv), followed by 5-minutes interval and another bolus injection of 2-methyl-5-hydroxytryptamine (32 μg/kg, iv).

[1] = system: Cisplatin-induced vomiting; assay: Inhibition of Cisplatin-induced vomiting; type: in vivo, female beagles; settings: Canis lupus familiaris; intravenously twice, 10 minutes prior to and 90 minutes after Cisplatin (3.2 mg/kg, iv); observed up to 5 hours
Protocol: (B) Inhibition of Cisplatin-induced vomiting
Nonfasted female beagles weighing about 10 kg were administered test compound or saline intravenously twice 10 minutes prior to and 90 minutes after Cisplatin dosing (3.2 mg/kg, iv).
Cisplatin was dissolved in 0.9% warm saline with a final concentration of 3 mg/ml and used immediately.

[2] = inhibition of bradycardic response to 2-methyl-5-hydroxytryptamine (32 μg/kg, iv), anesthetized rats, read-out: ED50

| SMILES | ED50 (Benzold-Jarisch reflex) [µg/kg] | ED50 (Benzold-Jarisch reflex; [2]) [µg/kg] | ED50 [1] [µg/kg] |
| --- | --- | --- | --- |
| Cc1c2n(c3ccccc13)C(=O)C(Cc1c[nH]cn1)CC2 (centres unmarked) [Compound 2, 8,9-Dihydro-7-[(1H-imidazol-4-yl)methyl]-10-methylpyrido[1,2-a]indol-6(7H)-one] | 1.8 | – | – |
| Cc1[nH]cnc1C(O)C1CCc2c(C)c3ccccc3n2C1=O.O=C(O)/C=C\C(=O)O (single isomer, unassigned; isomer b) [Compound 1, 8,9-Dihydro-7-[(hydroxy)(5-methyl-1H-imidazol-4-yl)methyl]-10-methylpyrido[1,2-a]indol-6(7H)-one maleate (isomer B)] | – | 5.9 | – |
| Cc1[nH]cnc1CC1(C)CCc2c(C)c3ccccc3n2C1=O (centres unmarked) [Compound 4, 8,9-Dihydro-7,10-dimethyl-7-[(5-methyl-1H-imidazol-4-yl)methyl]pyrido[1,2-a]indol-6(7H)-one] | – | 1.1 | – |
| Cc1[nH]cnc1CC1CCc2c(C)c3ccccc3n2C1=O.Cl (single isomer, unassigned; (+)) [Compound 3, (+)-8,9-Dihydro-10-methyl-7-[(5-methyl-1H-imidazol-4-yl)methyl]pyrido[1,2-a]indol-6(7H)-one hydrochloride] | – | 0.9 | 1.1 |
